Counter-ions that a name gives are not always drawn.
Key:
human EP1 receptor = target: T1, human EP1 receptor (Homo sapiens, UniProt P34995); assay: human EP1 calcium mobilisation assay; type: cell-based; conditions: for Ki: human EP1, CHO-K1 cells, antagonism of PGE2, averages of a number of experiments, read-out: functional pKi value (converted)
T1 construct: expressed in transfected cells; host or cells: CHO-K1
T1 sequence (P34995 1-402): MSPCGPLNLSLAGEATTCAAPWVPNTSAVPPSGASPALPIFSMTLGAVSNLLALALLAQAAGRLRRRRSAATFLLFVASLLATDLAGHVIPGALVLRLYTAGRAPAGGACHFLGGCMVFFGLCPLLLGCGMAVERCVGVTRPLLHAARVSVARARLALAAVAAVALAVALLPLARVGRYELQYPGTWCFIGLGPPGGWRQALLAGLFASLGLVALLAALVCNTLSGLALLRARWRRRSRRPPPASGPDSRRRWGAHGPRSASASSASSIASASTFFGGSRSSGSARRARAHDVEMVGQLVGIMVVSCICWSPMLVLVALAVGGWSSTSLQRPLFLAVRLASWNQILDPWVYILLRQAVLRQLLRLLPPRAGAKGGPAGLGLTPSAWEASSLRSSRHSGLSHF
Description: Briefly, the antagonist properties of compounds are assessed by their ability to inhibit the mobilisation of intracellular calcium ([Ca^2+]i) in response to activation of EP1 or EP3 receptors by the natural agonist hormone prostaglandin E2 (PGE2). Increasing concentrations of antagonist reduce the amount of calcium that a given concentration of PGE2 can mobilise. The net effect is to displace the PGE2 concentration-effect curve to higher concentrations of PGE2. The amount of calcium produced is assessed using a calcium-sensitive fluorescent dye such as Fluo-4, AM and a suitable instrument such as a Fluorimetric Imaging Plate Reader (FLIPR). Increasing amounts of [Ca^2+]i produced by receptor activation increase the amount of fluorescence produced by the dye and give rise to an increasing signal. The signal may be detected using the FLIPR instrument and the data generated may be analysed with suitable curve-fitting software.
The human EP1 or EP3 calcium mobilisation assay (hereafter referred to as ‘the calcium assay’) utilises Chinese hamster ovary-K1 (CHO-K1) cells into which a stable (pCIN; BioTechniques 20 (1996): 102-110) vector containing either EP1 or EP3 cDNA has previously been transfected. Cells are cultured in suitable flasks containing culture medium such as DMEM:F-12 supplemented with 10% v/v foetal calf serum, 2 mM L-glutamine, 0.25 mg/ml geneticin, 100 μM flurbiprofen and 10 μg/ml puromycin.
For assay, cells are harvested using a proprietary reagent that dislodges cells such as Versene. Cells are re-suspended in a suitable quantity of fresh culture media for introduction into a 384-well plate. Following incubation for 24 hours at 37° C. the culture media is replaced with a medium containing Fluo-4 and the detergent pluronic acid, and a further incubation takes place. Concentrations of compounds are then added to the plate in order to construct concentration-effect curves. This may be performed on the FLIPR in order to assess the agonist properties of the compounds. Concentrations of PGE2 are then added to the plate in order to assess the antagonist properties of the compounds.
The data so generated may be analysed by means of a computerised curve-fitting routine. The concentration of compound that elicits a half-maximal inhibition of the calcium mobilisation induced by PGE2 (pIC50) may then be estimated.

[1] = target: T2, human prostanoid EP1 receptor (Homo sapiens, UniProt P34995); assay: Binding assay for the human prostanoid EP1 receptor (competition with [3H]-PGE2); conditions: [3H]-PGE2 competition, human EP1, CHO-K1 membranes; averages of a number of experiments; read-out: pIC50 value (converted)
T2 construct: expressed in transfected cells; host or cells: CHO-K1 (membrane fraction)
T2 sequence (P34995 1-402): T1 sequence (P34995 1-402)
Description: Competition assay using [^3H]-PGE2.
Compound potencies are determined using a radioligand binding assay. In this assay compound potencies are determined from their ability to compete with tritiated prostaglandin E2 ([^3H]-PGE2) for binding to the human EP1 receptor.
This assay utilises Chinese hamster ovary-K1 (CHO-K1) cells into which a stable vector containing the EP1 cDNA has previously been transfected. Cells are cultured in suitable flasks containing culture medium such as DMEM:F-12 supplemented with 10% v/v foetal calf serum, 2 mM L-glutamine, 0.25 mg/ml geneticin, 10 μg/ml puromycin and 10 μM indomethacin.
Cells are detached from the culture flasks by incubation in calcium and magnesium free phosphate buffered saline containing 1 mM disodium ethylenediaminetetraacetic acid (Na2EDTA) and 10 μM indomethacin for 5 min. The cells are isolated by centrifugation at 250×g for 5mins and suspended in an ice cold buffer such as 50 mM Tris, 1 mM Na2EDTA, 140 mM NaCl, 10 μM indomethacin (pH 7.4). The cells are homogenised using a Polytron tissue disrupter (2×10 s burst at full setting), centrifuged at 48,000×g for 20mins and the pellet containing the membrane fraction is washed (optional) three times by suspension and centrifugation at 48,000×g for 20mins. The final membrane pellet is suspended in an assay buffer such as 10 mM 2-[N-morpholino]ethanesulphonic acid, 1 mM Na2EDTA, 10 mM MgCl2 (pH 6). Aliquots are frozen at −80° C. until required.
For the binding assay the cell membranes, competing compounds and [^3H]-PGE2 (3 nM final assay concentration) are incubated in a final volume of 100 μl for 30 min at 30° C. All reagents are prepared in assay buffer. Reactions are terminated by rapid vacuum filtration over GF/B filters using a Brandell cell harvester. The filters are washed with ice cold assay buffer, dried and the radioactivity retained on the filters is measured by liquid scintillation counting in Packard TopCount scintillation counter.
The data are analysed using non linear curve fitting techniques to determine the concentration of compound producing 50% inhibition of specific binding (IC50).

| SMILES | Ki (human EP1 receptor) | IC50 [1] | IC50 (human EP1 receptor; human EP1 calcium mobilisation assay, read-out: pIC50 values (converted)) |
| --- | --- | --- | --- |
| O=C(Nc1cccc(Cc2cc(Cl)ccc2OCc2ccccc2)n1)C1CCCCC1 [Example 4, N-[6-({5-Chloro-2-[(phenylmethyl)oxy]phenyl}methyl)-2-pyridinyl]cyclohexanecarboxamide] | ≤ 316 nM | ≤ 100 nM | – |
| CC(C)(C)CC(=O)Nc1cccc(Cc2cc(Cl)ccc2OCc2ccccc2)n1 [Example 5, N-[6-({5-Chloro-2-[(phenylmethyl)oxy]phenyl}methyl)-2-pyridinyl]-3,3-dimethylbutanamide] | ≤ 316 nM | ≤ 100 nM | – |
| O=C(Nc1ccc(CO)cc1)c1cccc(Cc2cc(Cl)ccc2OCc2ccc(Cl)cc2F)n1 [Example 13, 6-[(5-Chloro-2-{[(4-chloro-2-fluorophenyl)methyl]oxy}phenyl)methyl]-N-[4-(hydroxymethyl)phenyl]-2-pyridinecarboxamide] | ≤ 10000 nM | ≤ 100 nM | – |
| Fc1cc(Cl)ccc1COc1ccc(Cl)cc1Cc1cccc(-c2nc3ccccc3[nH]2)n1 [Example 19, 2-{6-[(5-Chloro-2-[([(4-chloro-2-fluorophenyl)methyl]oxy}phenyl)methyl]-2-pyridinyl]-1H-benzimidazole Hydrochloride] | ≤ 316 nM | ≤ 100 nM | – |
| Fc1cc(Cl)ccc1COc1ccc(Cl)cc1Cc1cccc(-c2nc3cncnc3[nH]2)n1 [Example 20, 8-{6-[(5-Chloro-2-{[(4-chloro-2-fluorophenyl)methyl]oxy}phenyl)methyl]-2-pyridinyl}-1H-purinehydrochloride] | ≤ 316 nM | ≤ 100 nM | – |
| CC(C)COc1ccc(Cl)cc1Cc1cccc(-c2nc3nccnc3[nH]2)n1 [Example 22, 2-[6-({5-Chloro-2-[(2-methylpropyl)oxy]phenyl}methyl)-2-pyridinyl]-1H-imidazo[4,5-b]pyrazine hydrochloride] | ≤ 316 nM | ≤ 100 nM | – |
| CN(C)c1ccc2nc(-c3cccc(Cc4cc(Cl)ccc4OCc4ccccc4)n3)[nH]c2c1 [Example 27, 2-[6-({5-Chloro-2-[(phenylmethyl)oxy]phenyl}methyl)-2-pyridinyl]-N,N-dimethyl-1H-benzimidazol-5-aminehydrochloride] | ≤ 10000 nM | ≤ 100 nM | – |
| Clc1ccc(OCc2ccccc2)c(Cc2cccc(-c3nc4ccc(N5CCOCC5)cc4[nH]3)n2)c1 [Example 28, 2-[6-({5-Chloro-2-[(phenylmethyl)oxy]phenyl}methyl)-2-pyridinyl]-5-(4-morpholinyl)-1H-benzimidazolehydrochloride] | ≤ 316 nM | ≤ 100 nM | – |
| Cc1ccc2[nH]c(-c3cccc(Cc4cc(Cl)ccc4OCc4ccccc4)n3)nc2c1 [Example 29, 2-[6-({5-Chloro-2-[(phenylmethyl)oxy]phenyl}methyl)-2-pyridinyl]-5-methyl-1H-benzimidazole Hydrochloride] | ≤ 10000 nM | ≤ 100 nM | – |
| Clc1ccc(OCc2ccccc2)c(Cc2cccc(-c3nc4ncccc4[nH]3)n2)c1 [Example 30, 2-[6-({5-Chloro-2-[(phenylmethyl)oxy]phenyl}methyl)-2-pyridinyl]-1H-imidazo[4,5-b]pyridinehydrochloride] | ≤ 316 nM | ≤ 100 nM | – |
| COc1ccc2[nH]c(-c3cccc(Cc4cc(Cl)ccc4OCc4ccccc4)n3)nc2c1 [Example 31, 2-[6-({5-Chloro-2-[(phenylmethyl)oxy]phenyl}methyl)-2-pyridinyl]-5-(methyloxy)-1H-benzimidazolehydrochloride] | ≤ 316 nM | ≤ 100 nM | – |
| Clc1ccc(OCc2ccccc2)c(Cc2cccc(-c3nc4ccccc4[nH]3)n2)c1 [Example 34, 2-[6-({5-Chloro-2-[(phenylmethyl)oxy]phenyl}methyl)-2-pyridinyl]-1H-benzimidazole hydrochloride] | ≤ 316 nM | ≤ 100 nM | – |
| Clc1ccc(OCc2ccccc2)c(Cc2cccc(-c3nc4cc(Cl)ccc4[nH]3)n2)c1 [Example 35, 5-Chloro-2-[6-({5-Chloro-2-[(phenylmethyl)oxy]phenyl}methyl)-2-pyridinyl]-1H-benzimidazole hydrochloride] | ≤ 316 nM | ≤ 100 nM | – |
| Fc1ccc2[nH]c(-c3cccc(Cc4cc(Cl)ccc4OCc4ccccc4)n3)nc2c1 [Example 36, 2-[6-({5-Chloro-2-[(phenylmethyl)oxy]phenyl}methyl)-2-pyridinyl]-5-fluoro-1H-benzimidazolehydrochloride] | ≤ 316 nM | ≤ 100 nM | – |
| CC(C)COc1ccc(Cl)cc1Cc1cccc(-c2nc3ccccc3[nH]2)n1 [Example 44, 2-[6-({5-Chloro-2-[(2-methylpropyl)oxy]phenyl}methyl)-2-pyridinyl]-1H-benzimidazole] | ≤ 316 nM | ≤ 100 nM | – |
| CNCc1ccc2nc(-c3cccc(Cc4cc(Cl)ccc4OCC(C)C)n3)[nH]c2c1 [Example 52, ({2-[6-({5-Chloro-2-[(2-methylpropyl)oxy]phenyl}methyl)-2-pyridinyl]-1H-benzimidazol-5-yl}methyl)methylaminehydrochloride] | ≤ 316 nM | ≤ 100 nM | – |
| CN(CCC#N)Cc1ccc(NC(=O)c2cccc(Cc3cc(Cl)ccc3OCc3ccc(Cl)cc3F)n2)cc1 [Example 57, 6-[(5-Chloro-2-{[(4-chloro-2-fluorophenyl)methyl]oxy}phenyl)methyl]-N-(4-{[(2-cyanoethyl)(methyl)amino]methyl}phenyl)-2-pyridinecarboxamide] | ≤ 10000 nM | ≤ 100 nM | – |
| CN(C)Cc1ccc2nc(-c3cccc(Cc4cc(Cl)ccc4OCc4ccc(Cl)cc4F)n3)[nH]c2c1 [Example 58, [(2-{6-[(5-Chloro-2-{[(4-chloro-2-fluorophenyl)methyl]oxy}phenyl)methyl]-2-pyridinyl}-1H-benzimidazol-5-yl)methyl]dimethylamine Hydrochloride] | – | ≤ 100 nM | > 10000 nM |
| CC(C)(C)OC(=O)Nc1cccc(Cc2cc(Cl)ccc2OCc2ccc(Cl)cc2F)n1 [Example 61, 1,1-Dimethylethyl {6-[(5-chloro-2-{[(4-chloro-2-fluorophenyl)methyl]oxy}phenyl)methyl]-2-pyridinyl}carbamate Hydrochloride] | ≤ 316 nM | ≤ 100 nM | – |
| CC(C)COc1ccc(Cl)cc1Cc1cccc(NC(=O)c2ccc(CO)cc2)n1 [Example 62, N-[6-({5-Chloro-2-[(2-methylpropyl)oxy]phenyl}methyl)-2-pyridinyl]-4-(hydroxymethyl)benzamide] | ≤ 10000 nM | ≤ 100 nM | – |

Source: patent US20090099177A1, “PYRIDYL COMPOUNDS” (priority 2006, published 2009)
